Read-outs that look alike come from different tables or passages of the source.
Assays:
[1] = MTT mortality on normal fibroblasts (control); format: cell-based; details: human, primary dermal fibroblast normal cells, data from IC50 (µM)
Description: [The source words this procedure for another cell line and says it was used here with some conditions changed.] (§1) This test was performed using the MDA-MB231 breast cancer cell line (ATCC® CRM-HBT-26), as described by Mosmann. The cells were incubated at different concentrations of the compounds of interest. To generate the cell viability curves of all synthesized compounds, cells were seeded in 96-well culture plates at a density of 5000 cells/well and cultured in DMEM supplemented with 10% FBS. Cell viability was measured using MTT reagent dissolved in PBS (0.5 mg/mL). On the day of measurement, the medium was carefully replaced with fresh DMEM and 10% SFB containing diluted MTT (1:10, 10% MTT), and the sample was incubated for 1 h at 37 °C in a CO2 incubator to allow for the transformation of MTT dye into Formazan salt. After removing the incubation medium, the Formazan crystals were dissolved in 100 µL of DMSO solution. It is also important to note that the reduction in MTT was quantified by measuring absorbance at 570 nm using the Benchmark Plus absorbance microplate reader (Bio-Rad). The MTT test was repeated nine times. The proliferation percentage (% viability) was calculated according to the following:% Viability = (B/A) × 100 where A is the absorbance value of the control group and B is the absorbance value of the cells treated with the compounds of interest.

[2] = tested on: MDA-MB-231 breast cancer cells; test: MTT cytotoxicity assay on MDA-MB-231 breast cancer cells; format: cell-based; details: mean ± S.D. of three values
Description: as §1
IC50 was extrapolated from the dose–response plot, obtained by plotting viability versus concentration. The concentration of the drug that reduced the viability of the cells by 50% (IC50) was determined by plotting the data points in triplicate over a concentration range and calculating the values using regression analysis.

caspase-3 = details: cited from earlier work
[3] = Solubility observed in the cytotoxic testing; format: physicochemical; details: observation during MTT testing
[4] = Homo sapiens, MDA-MB-231, MDA-MB-231, MTT assay, read-out: IC50
[5] = Homo sapiens, MDA-MB-231, MDA-MB-231, MTT assay, read-out: IC50 (μg/mL)

SMILES | mortality at 24 h [1] [%] | IC50 [2, 4] [µM] | IC50 [2, 5] [µg/mL] | binding energy of complex with caspase-3 (caspase-3) [kcal/mol] | binding energy with caspase-3 (caspase-3; assessed for diabetes mellitus) [kcal/mol] | solubility in the cytotoxic/IC50 testing (in words) [3] | IC50 ([2]; MDA-MB-231, MTT assay) [µg/mL]
CC1=CC(=O)C(C(C)CCC(O)C(C)(C)O)=C(O)C1=O (centres unmarked) [Compound 9] | 46.4 ± 1.08 | 101 ± 19.2 | 28.4 ± 5.4 |  |  |  | 
CC1=CC(=O)C(C(C)CCC2OC(C)(C)OC2(C)C)=C(O)C1=O (centres unmarked) [Compound 5] | 90.7 ± 0.58 | 74.9 ± 14.8 | 24.1 ± 4.75 |  |  |  | 
CC1=CC(=O)c2c(O)cccc2C1=O [plumbagin] |  |  |  | -10.13 |  |  | 
CC1=C(O)C(=O)C(C(C)CCC(O)C(C)(C)O)=CC1=O (centres unmarked) [Compound 10] | 68.7 ± 1.08 | 140 ± 6.13 | 39.4 ± 1.73 |  |  |  | 
O=C[C@H](O)[C@@H](O)[C@@H](O)[C@H](O)C(=O)O [D-galacturonic acid] |  |  |  |  | -4.03 |  | 
CC(=O)OC(C)(C)C(O)CCC(C)C1=CC(=O)C(C)=C(O)C1=O (centres unmarked) [Compound 8] |  |  | 33 |  |  | poor solubility | 
CC1=C(O)C(=O)C(C(C)CCC2OC2(C)C)=CC1=O (centres unmarked) [Compound 4] | 42.38 ± 0.19 | 114 ± 31.8 | 30 |  |  |  | 30.2 ± 8.4
CC1=CC(=O)C(C(C)CCC2OC2(C)C)=C(O)C1=O (centres unmarked) [Compound 3] | 19.5 ± 3.27 | 9.62 ± 0.76 | 2.54 ± 0.2 |  |  |  | 
CC1=C(O)C(=O)C(C(C)CCC2OC(C)(C)OC2(C)C)=CC1=O (centres unmarked) [Compound 6] | 18.4 ± 1.54 | 8.44 ± 1.46 | 2.72 ± 0.47 |  |  |  | 
CC(=O)OC(C)(C)C(O)CCC(C)C1=C(O)C(=O)C(C)=CC1=O (centres unmarked) [Compound 7] | 96.8 ± 2.76 | 103 ± 5.96 | 33.2 ± 1.93 |  |  | did not show great solubility | 
CC(C)=CCC[C@@H](C)C1=CC(=O)C(C)=C(O)C1=O [Compound 2, isoperezone, reference compound] |  | 19.31 ± 0.05 | 4.79 ± 0.01 |  |  |  | 

— PMC12693026, “Green Contributions to the Chemistry of Perezone and Oxidation of the Double Bond of the Side Chain: A Theoretical Study and Cytotoxic Evaluation in MDA-MB231 Cells” (Molecules, 2025)
